Measured values taken from ChEMBL document CHEMBL1201862, “PubChem BioAssay data set” (2004).
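The compound was tested at five concentrations on cells cultured in 96-well plates, with a 48-hour exposure period. Here, GI50 denotes the concentration required for 50% inhibition of growth.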 Active and inactive are the calls of the source. Cut-off read from the data, not from the text of the source: active = GI50 up to about 1.1 µM and inactive = higher.

Columns and labels:
Assay in all cases: NCI-60 cell line screen, 48 h
KM12 = test system: KM12
HCC 2998 = test system: HCC 2998
HCT-15 = test system: HCT-15
HT-29 = test system: HT-29
RXF 393 = test system: RXF 393
OVCAR-8 = test system: OVCAR-8
SK-MEL-2 = test system: SK-MEL-2
OVCAR-5 = test system: OVCAR-5
SNB-75 = test system: SNB-75
HOP-62 = test system: HOP-62
SK-MEL-28 = test system: SK-MEL-28
OVCAR-3 = test system: OVCAR-3
NCI-H23 = test system: NCI-H23
SF-268 = test system: SF-268
OVCAR-4 = test system: OVCAR-4
SNB-19 = test system: SNB-19
MDA-N = test system: MDA-N
IGROV-1 = test system: IGROV-1
SW-620 = test system: SW-620

Structure (SMILES)	GI50 (KM12)	GI50 (HCC 2998)	GI50 (HCT-15)	GI50 (HT-29)	GI50 (RXF 393)	GI50 (OVCAR-8)	GI50 (SK-MEL-2)	GI50 (OVCAR-5)	GI50 (SNB-75)	GI50 (HOP-62)	GI50 (SK-MEL-28)	GI50 (OVCAR-3)	GI50 (NCI-H23)	GI50 (SF-268)	GI50 (OVCAR-4)	GI50 (SNB-19)	GI50 (MDA-N)	GI50 (IGROV-1)	GI50 (SW-620)
O=c1[nH]nc(NCCc2ccccc2)c2nnn(Cc3ccccc3)c12	> 100 µM (inactive)	> 100 µM (inactive)	> 100 µM	> 100 µM (inactive)	> 100 µM (inactive)	> 100 µM (inactive)	> 100 µM (inactive)	> 100 µM (inactive)	> 100 µM (inactive)	> 100 µM (inactive)	> 100 µM (inactive)	> 100 µM (inactive)	> 100 µM (inactive)	> 100 µM (inactive)	> 100 µM (inactive)	> 100 µM (inactive)	–	–	–
O=Cc1cn(CCCCCCCCCCCCn2cc(C=O)c3ccccc32)c2ccccc12	–	> 100 µM (inactive)	> 100 µM	> 100 µM (inactive)	> 100 µM (inactive)	> 100 µM (inactive)	> 100 µM (inactive)	99.1 µM (inactive)	–	> 100 µM (inactive)	> 100 µM (inactive)	> 100 µM (inactive)	3.53 µM (inactive)	> 100 µM (inactive)	–	> 100 µM (inactive)	> 100 µM (inactive)	> 100 µM (inactive)	> 100 µM (inactive)
O=C(NCCCC/N=c1/cccccc1NCCCCNC(=O)OCc1ccccc1)OCc1ccccc1	17.9 µM (inactive)	15.7 µM (inactive)	8.05 µM	6.04 µM (inactive)	17.8 µM (inactive)	18.9 µM (inactive)	18.8 µM (inactive)	17.1 µM (inactive)	18.7 µM (inactive)	21.2 µM (inactive)	22.1 µM (inactive)	14.3 µM (inactive)	19.3 µM (inactive)	25.6 µM (inactive)	18.9 µM (inactive)	23.8 µM (inactive)	–	20.9 µM (inactive)	17 µM (inactive)
COc1ccc(C(Cl)=C(c2ccc(OCCN(C)C)cc2)c2ccc(OCCN(C)C)cc2)cc1	1.37 µM (inactive)	2.26 µM (inactive)	1.59 µM	1.49 µM (inactive)	1.13 µM (inactive)	1.87 µM (inactive)	1.68 µM (inactive)	1.73 µM (inactive)	1.44 µM (inactive)	3.14 µM (inactive)	1.63 µM (inactive)	2.09 µM (inactive)	1.73 µM (inactive)	1.84 µM (inactive)	2.49 µM (inactive)	2.42 µM (inactive)	–	3.03 µM (inactive)	1.35 µM (inactive)
OCC1OC2c3ccccc3COC2C1OCc1ccccc1 (stereo not given)	> 100 µM (inactive)	> 100 µM (inactive)	> 100 µM	> 100 µM (inactive)	> 100 µM (inactive)	> 100 µM (inactive)	> 100 µM (inactive)	> 100 µM (inactive)	> 100 µM (inactive)	–	> 100 µM (inactive)	> 100 µM (inactive)	91.6 µM (inactive)	–	> 100 µM (inactive)	> 100 µM (inactive)	–	> 100 µM (inactive)	> 100 µM (inactive)
CC(N)Cc1ccc(Cl)cc1 (stereo not given)	> 100 µM (inactive)	> 100 µM (inactive)	51.6 µM	50.8 µM (inactive)	> 100 µM (inactive)	> 100 µM (inactive)	> 100 µM (inactive)	58.5 µM (inactive)	> 100 µM (inactive)	> 100 µM (inactive)	> 100 µM (inactive)	> 100 µM (inactive)	39.5 µM (inactive)	> 100 µM (inactive)	> 100 µM (inactive)	> 100 µM (inactive)	–	42.4 µM (inactive)	> 100 µM (inactive)
COc1cc(C[P+](c2ccccc2)(c2ccccc2)c2ccccc2)cc(OC)c1OC	> 100 µM (inactive)	> 100 µM (inactive)	> 100 µM	> 100 µM (inactive)	> 100 µM (inactive)	> 100 µM (inactive)	> 100 µM (inactive)	> 100 µM (inactive)	> 100 µM (inactive)	> 100 µM (inactive)	> 100 µM (inactive)	> 100 µM (inactive)	> 100 µM (inactive)	> 100 µM (inactive)	> 100 µM (inactive)	> 100 µM (inactive)	–	> 100 µM (inactive)	> 100 µM (inactive)
N#C/C(=C\c1cc(OCc2ccccc2)c(OCc2ccccc2)cn1)C(N)=O	> 100 µM (inactive)	> 100 µM (inactive)	> 100 µM	> 100 µM (inactive)	> 100 µM (inactive)	> 100 µM (inactive)	> 100 µM (inactive)	> 100 µM (inactive)	36.7 µM (inactive)	> 100 µM (inactive)	> 100 µM (inactive)	> 100 µM (inactive)	> 100 µM (inactive)	> 100 µM (inactive)	> 100 µM (inactive)	> 100 µM (inactive)	–	> 100 µM (inactive)	> 100 µM (inactive)
COc1cccc(C(=O)N2CCc3ccccc32)c1OC	34.7 µM (inactive)	85.1 µM (inactive)	21 µM	38.9 µM (inactive)	63.1 µM (inactive)	78.3 µM (inactive)	> 100 µM (inactive)	> 100 µM (inactive)	68.4 µM (inactive)	> 100 µM (inactive)	> 100 µM (inactive)	38.5 µM (inactive)	34.4 µM (inactive)	–	48.9 µM (inactive)	74.8 µM (inactive)	–	> 100 µM (inactive)	41.9 µM (inactive)
OCC(O)C(O)C(O)c1nn(-c2ccc(F)cc2)c2nc3cc(Cl)c(Cl)cc3nc12 (stereo not given)	23.3 µM (inactive)	29.4 µM (inactive)	53.3 µM	56 µM (inactive)	15.6 µM (inactive)	11 µM (inactive)	17.3 µM (inactive)	> 100 µM (inactive)	3.94 µM (inactive)	12.7 µM (inactive)	16.8 µM (inactive)	21.8 µM (inactive)	18.5 µM (inactive)	16.9 µM (inactive)	6.21 µM (inactive)	18.3 µM (inactive)	–	21.9 µM (inactive)	26.4 µM (inactive)
Cc1ccc(C)c(NC(=O)CC/C(=N\NC(=O)c2c(O)ccc3ccccc23)C(C)C(=O)c2ccc(O)cc2)c1 (stereo not given)	51.2 µM (inactive)	44.6 µM (inactive)	26.5 µM	46.9 µM (inactive)	51.9 µM (inactive)	26.1 µM (inactive)	24.7 µM (inactive)	37.5 µM (inactive)	20.2 µM (inactive)	49.5 µM (inactive)	49 µM (inactive)	23.3 µM (inactive)	31.1 µM (inactive)	17.9 µM (inactive)	29.9 µM (inactive)	11.6 µM (inactive)	–	52 µM (inactive)	41.3 µM (inactive)
Brc1cc(C2OCCCO2)ccc1OCc1ccccc1	33.7 µM (inactive)	30.3 µM (inactive)	48 µM	17.5 µM (inactive)	67.9 µM (inactive)	57.3 µM (inactive)	81.7 µM (inactive)	29.6 µM (inactive)	45.3 µM (inactive)	43.9 µM (inactive)	> 100 µM (inactive)	74.1 µM (inactive)	45.6 µM (inactive)	76.4 µM (inactive)	31.2 µM (inactive)	88.7 µM (inactive)	–	> 100 µM (inactive)	30.1 µM (inactive)
COc1ccc(Nc2nc3ccc(C(F)(F)F)cc3nc2-c2ccccc2)cc1OC	21.5 µM (inactive)	14.6 µM (inactive)	15.9 µM	6.65 µM (inactive)	23 µM (inactive)	58.6 µM (inactive)	57.5 µM (inactive)	52.7 µM (inactive)	> 100 µM (inactive)	> 100 µM (inactive)	> 100 µM (inactive)	54.7 µM (inactive)	32.4 µM (inactive)	92.7 µM (inactive)	> 100 µM (inactive)	–	–	60.7 µM (inactive)	68.4 µM (inactive)
CN(C)CCNC(=O)c1cccc2[nH]c(-c3cccnc3)nc12	36.5 µM (inactive)	17.1 µM (inactive)	24.8 µM	27.4 µM (inactive)	16.9 µM (inactive)	17.5 µM (inactive)	25.8 µM (inactive)	28.1 µM (inactive)	20.9 µM (inactive)	18.5 µM (inactive)	31.7 µM (inactive)	20.8 µM (inactive)	18.8 µM (inactive)	27.9 µM (inactive)	29.3 µM (inactive)	28.1 µM (inactive)	–	32.5 µM (inactive)	12.9 µM (inactive)
Cc1ccc(/N=C2\N=C(N3CC(C)OC(C)C3)c3ccccc32)cc1 (stereo not given)	22 µM (inactive)	29.5 µM (inactive)	25.4 µM	23.7 µM (inactive)	12.6 µM (inactive)	33.4 µM (inactive)	24.4 µM (inactive)	40.6 µM (inactive)	27.9 µM (inactive)	37.9 µM (inactive)	28.4 µM (inactive)	24.3 µM (inactive)	28.5 µM (inactive)	25.9 µM (inactive)	18.1 µM (inactive)	35 µM (inactive)	–	27.5 µM (inactive)	33.9 µM (inactive)
O=C(O)/C=C/C(=O)N1C/C(=C\c2ccccc2)C(=O)/C(=C/c2ccccc2)C1	2.55 µM (inactive)	6.67 µM (inactive)	6.73 µM	7.76 µM (inactive)	5.05 µM (inactive)	2.7 µM (inactive)	12.6 µM (inactive)	17.9 µM (inactive)	9.84 µM (inactive)	23.4 µM (inactive)	6.49 µM (inactive)	7.26 µM (inactive)	9.71 µM (inactive)	6.35 µM (inactive)	7.43 µM (inactive)	11.3 µM (inactive)	–	16.7 µM (inactive)	2.32 µM (inactive)
